The values that follow come from patent publication US20250064799A1, “ORAL FORMULATIONS OF LEVOSIMENDAN FOR TREATING PULMONARY HYPERTENSION WITH HEART FAILURE WITH PRESERVED EJECTION FRACTION” (Tenax Therapeutics, Inc., priority 2021, published 2025).

Where “and” joins values, the source holds several entries; their conditions need not be identical. Identical values can stand only once.

Data set [1] concerns whole cardiomyocytes and isolated contractile apparatus preparations. As to conditions: cited from earlier work.
The nature of data set [2]: OR-1896 plasma concentration, I.V. to oral transition pharmacokinetic study. The data set is classed as in vivo, human. The conditions noted are these: individual patients. The source says: FIGS. 6A-6W: Pharmacokinetic Data from the Levosimendan I.V. to Oral Transition Study. […] FIGS. 6D-6U show patient OR-1896 plasma concentrations (ng/ml, y-axis) for each patient in the I.V. to oral transition study. The respective patient number is indicated above each graph. FIG. 6V: Individual Patient Change in 6-minute walk distance (6MWD) at Week 6 (y-axis) by OR-1896 plasma concentration (Week 6) (x-axis). FIG. 6W: Individual Patient Change in Heart Rate (Week 0 to Week 6) (y-axis) by OR-1896 plasma concentration (Week 6) (x-axis).

For a further data set, the system named is PDE4. The conditions noted are these: cited from earlier work.
Data set [3] concerns phosphodiesterase-3 (PDE3). The conditions noted are these: cited from earlier work.
For data set [4] the following is noted: heart failure subjects; cited from earlier work.
A further data set relates to patients with PH-HFpEF. As to conditions: in vivo; cited from earlier work.
For data set [5], the system named is HFpEF, HFrEF, or PH-HFpEF patients. As to conditions: empagliflozin alone; cited from earlier work.
Data set [6] relates to patients with left heart disease. The conditions noted are these: in vivo; cited from earlier work.
In data set [7] the test system is PH-HFpEF patients. As to conditions: in vivo; cited from earlier work.
In data set [8] the test system is PH-HFpEF patients. The conditions noted are these: after 12 weeks, 52 patients; cited from earlier work.
In a further data set the test system is patients with HFpEF. As to conditions: long term treatment, 216 patients; cited from earlier work.
Data set [9] deals with HFpEF patients. As to conditions: inhaled 3 times a day for 4 weeks; cited from earlier work.
The subject of data set [10] is HFpEF patients. As to conditions: in vivo; cited from earlier work.

As a reminder, the half-life is the time needed for the level to fall by half in the phase considered.

Regarding `CC(=O)Nc1ccc(C2=NNC(=O)C[C@H]2C)cc1` [OR-1896, (R)—N-(4-(4-methyl-6-oxo-1,4,5,6-tetraihydropyridazin-3-yl)phenyl) acetamide], in [1], the “inotropic effects relative to levosimendan” value is “equipotent”. Also, in data set [2] (daily 3 mg oral levosimendan), the “OR-1896 Plasma concentration, Week 6” value was 13.0 ng/mL and 8.44 ng/mL and 4.04 ng/mL and 8.73 ng/mL and 29.0 ng/mL and 8.15 ng/mL and 1.97 ng/mL and 13.4 ng/mL and 34.1 ng/mL and 7.72 ng/mL and 22.9 ng/mL and 16.5 ng/mL and 12.7 ng/mL and 21.9 ng/mL and 12.3 ng/mL and 5.15 ng/mL. In addition, in [2] (oral levosimendan titration), the “OR-1896 Plasma concentration, Week 4” value is 8.86 ng/mL and 6.14 ng/mL and 6.28 ng/mL and 1.39 ng/mL and 12.6 ng/mL and 11.6 ng/mL and 32.9 ng/mL and 7.96 ng/mL and 13.1 ng/mL and 6.50 ng/mL and 5.90 ng/mL. In addition, in data set [2] (oral levosimendan, patients titrated at Week 6), the “OR-1896 Plasma concentration, Week 8” value is 3.47 ng/ml and 38.7 ng/ml and 69.9 ng/ml and 2.93 ng/ml and 25.5 ng/ml (2×) and 10.9 ng/ml. Further, the “OR-1896 Plasma concentration, Week 0” value in data set [2] (weekly I.V. levosimendan) is 4.46 ng/mL and 2.22 ng/mL and 0.730 ng/mL and 0.197 ng/mL and 12.2 ng/mL and 3.16 ng/mL and 0.787 ng/mL and 6.89 ng/mL and 36.1 ng/mL and 2.11 ng/mL and 0.00 ng/mL and 6.32 ng/mL and 2.81 ng/mL and 4.86 ng/mL and 3.77 ng/mL and 1.19 ng/mL. For the same compound, the “potency in inhibition of PDE4 relative to levosimendan” value with PDE4 is listed as “profoundly less potent”. The “potency in inhibition of PDE3 relative to levosimendan” value in data set [3] is on record as “profoundly less potent”. In data set [4], the half-life was 70 to 80 h.

Take `COc1ccccc1Oc1c(NS(=O)(=O)c2ccc(C(C)(C)C)cc2)nc(-c2ncccn2)nc1OCCO` [bosentan]: in the data set on patients with PH-HFpEF, the “clinical outcomes versus placebo” value was “worse clinical outcomes” and the “six minute walk test or echocardiographic evaluation of pulmonary hypertension” value is listed as “no improvements”.

For the compound `OC[C@H]1O[C@@H](c2ccc(Cl)c(Cc3ccc(O[C@H]4CCOC4)cc3)c2)[C@H](O)[C@@H](O)[C@@H]1O` [empagliflozin], in data set [5], the “change in exercise capacity as measured by 6MWD” value is listed as “did not demonstrate a material change”.

For the compound `CCCNS(=O)(=O)Nc1ncnc(OCCOc2ncc(Br)cn2)c1-c1ccc(Br)cc1` [macitentan], the “hemodynamic parameters (pulmonary vascular resistance, mean pulmonary arterial pressure, pulmonary artery wedge pressure)” value in [6] was “no change”.

For the compound `COC(=O)N(C)c1c(N)nc(-c2nn(Cc3ccccc3F)c3ncccc23)nc1N` [riociguat], the “mean pulmonary arterial pressure (primary outcome)” value in the data set with PH-HFpEF patients [7] is “primary outcome was not achieved”.

As to `CCCc1nn(C)c2c(=O)[nH]c(-c3cc(S(=O)(=O)N4CCN(C)CC4)ccc3OCC)nc12` [sildenafil], the “change in mPAP” value in the data set on PH-HFpEF patients [8] is “no change”. Further, the “six-minute walk time, clinical status, or quality of life” value in the data set on patients with HFpEF is given as “failed to improve”.

Take `O=NO` [sodium nitrite]: the “peak oxygen consumption during cardiopulmonary exercise (primary endpoint) and secondary endpoints” value in the data set on HFpEF patients [9] was “unable to demonstrate any improvement”.

`COC(=O)Nc1c(N)nc(-c2nn(Cc3ccccc3F)c3ncc(F)cc23)nc1N` [vericiguat]: the primary endpoints result in the data set with HFpEF patients [10] is recorded as “no significant changes”.
